We go through seven compounds from patent US9440964B2, “Pesticidal compositions and processes related thereto” (Dow AgroSciences LLC, priority 2011, dated 2016).

Molecules are shown by their SMILES. Where two headings read alike, the source gives them in different places.

Holding throughout (type): in vivo
The subject of assay [1] is CEW (Helicoverpa zea). Nature of the assay: Bioassay on Corn Earworm (CEW), 128-well diet tray. The conditions noted are these: Helicoverpa zea, 168 h, read-out: Rating CEW. In short, it runs like this:
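Helicoverpa zea (corn earworm) was tested in a 128-well diet tray. Each 3 mL well received one to five second instar larvae on diet treated with the test material in an acetone-water mixture, applied to eight wells and dried. Trays were sealed with clear self-adhesive covers, kept at 25° C., 14:10 light-dark for five to seven days, then percent mortality was averaged across eight wells.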

Assay [2] relates to BAW (Spodoptera exigua). Nature of the assay: Bioassay on Beet Armyworm (BAW), 128-well diet tray. The note with it: Spodoptera exigua, 168 h, read-out: Rating BAW. A digest of the protocol: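 Second-instar Spodoptera exigua larvae (one to five per well) placed on artificial diet surface-treated with 50 μg/cm^2 compound in 90:10 acetone-water, dried, eight wells per compound. Held 5–7 days at 25 °C, 14:10 light-dark; percent mortality averaged across wells.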

In assay [3] the test system is Green Peach Aphid (GPA) (Myzus persica). Nature of the assay: Bioassay on Green Peach Aphid (GPA), cabbage seedling foliar spray. The note with it: 72 h, read-out: Rating GPA. How it is done:
Certain molecules disclosed in this document were tested against GPA using procedures described in the following example. In the reporting of the results, the “GPA Rating Table” was used (See Table Section).
Cabbage seedlings grown in 3-inch pots, with 2-3 small (3-5 cm) true leaves, were used as test substrate. The seedlings were infested with 20-50 GPA (wingless adult and nymph stages) one day prior to chemical application. Four pots with individual seedlings were used for each treatment. Test compounds (2 mg) were dissolved in 2 mL of acetone/MeOH (1:1) solvent, forming stock solutions of 1000 ppm test compound. The stock solutions were diluted 5× with 0.025% Tween 20 in H2O to obtain the solution at 200 ppm test compound. A hand-held aspirator-type sprayer was used for spraying a solution to both sides of […] leaves until runoff. Reference plants (solvent check) were sprayed with the diluent only containing 20% by volume of acetone/MeOH (1:1) solvent. Treated plants were held in a holding room for three days at approximately 25° C. and ambient relative humidity (RH) prior to grading. Evaluation was conducted by counting the number of live aphids per plant under a microscope. Percent Control was measured by using Abbott's correction formula (W. S. Abbott, “A Method of Computing the Effectiveness of an Insecticide” J. Econ. Entomol. 18 (1925), pp. 265-267) as follows. Corrected % Control=100*(X−Y)/X • where • X=No. of live aphids on solvent check plants and • Y=No. of live aphids on treated plants
(§1) The results are indicated in the table entitled “Table ABC: Biological Results” (See Table Section).

Assay [4] has as its system Yellow Fever Mosquito YFM (Aedes aegypti). Description: Bioassay on Yellow Fever Mosquito (YFM) larvae, 96-well plate. The conditions noted are these: mortality of about 1 day-old larvae, scored after 3 days. The procedure:
Certain molecules disclosed in this document were tested against YFM using procedures described in the following paragraph. In the reporting of the results, the “YFM Rating Table” was used (See Table Section).
Master plates containing 400 μg of a molecule dissolved in 100 μL of dimethyl sulfoxide (DMSO) (equivalent to a 4000 ppm solution) are used. A master plate of assembled molecules contains 15 μL per well. To this plate, 135 μL of a 90:10 water:acetone mixture is added to each well. A robot (Biomek® NXP Laboratory Automation Workstation) is programmed to dispense 15 μL aspirations from the master plate into an empty 96-well shallow plate (“daughter” plate). There are 6 reps (“daughter” plates) created per master. The created daughter plates are then immediately infested with YFM larvae.
The day before plates are to be treated, mosquito eggs are placed in Millipore water containing liver powder to begin hatching (4 g. into 400 ml). After the daughter plates are created using the robot, they are infested with 220 μL of the liver powder/larval mosquito mixture (about 1 day-old larvae). After plates are infested with mosquito larvae, a non-evaporative lid is used to cover the plate to reduce drying. Plates are held at room temperature for 3 days prior to grading. After 3 days, each well is observed and scored based on mortality.
as §1

[5] abbreviates: percent mortality, second instar larvae, 50 μg/cm^2 on diet, five to seven days.
The mark [6] stands for this setting: corrected % control (Abbott), 200 ppm foliar spray on cabbage, three days.

For `Cc1cccc(C)c1N/C(=N/C(=O)Nc1ccc(-c2ncn(-c3ccc(OC(F)(F)F)cc3)n2)cc1)SCOC(=O)C(C)C` [Molecule A4, (E)-(N′-(2,6-Dimethylphenyl)-N-(4-(1-(4-(trifluoromethyoxy)phenyl)-1H-1,2,4-triazol-3-yl)phenylcarbamoyl)carbamimidoylthio)methyl isobutyrate], the pest or weed control at 50 µg/cm2 in assay [1] (setting [5]) and in assay [2] (setting [5]) was 50 to 100% each time. The pest or weed control at 200 ppm in assay [3] (setting [6]) was in the range of 0 to 80%. The “Rating YFM” value in assay [4] is reported as “A (80-100)”.
`COc1cc(C)c(N/C(=N/C(=O)Nc2ccc(-c3ncn(-c4ccc(C(F)(F)F)cc4)n3)cc2)SCOC(=O)CNC(=O)OCc2ccccc2)c(C)c1` [Molecule A9, (E)-((N′-(4-Methoxy-2,6-dimethylphenyl)-N-((4-(1-(4-(trifluoromethyl)phenyl)-1H-1,2,4-triazol-3-yl)phenyl)carbamoyl)carbamimidoyl)thio)methyl 2-(((benzyloxy)carbonyl)amino)acetate]: the pest or weed control at 50 µg/cm2 in assay [1] and in assay [2] was 50 to 100% in each case. In assay [3] (foliar), the pest or weed control at 200 ppm was in the range of 0 to 80%.
Turning to `Cc1cccc(C)c1N/C(S)=N/C(=O)Nc1ccc(-c2ncn(-c3ccc(OC(F)(F)F)cc3)n2)cc1` [Molecule A11], the pest or weed control at 50 µg/cm2 in assay [1] (setting [5]) and in assay [2] (setting [5]) was 50 to 100% each time. Further, the pest or weed control at 200 ppm in assay [3] (setting [6]) lay within 0 to 80%.
For `Cc1cccc(C)c1N1C(=O)CS/C1=N\C(=O)Nc1ccc(-c2ncn(-c3ccc(OC(F)(F)F)cc3)n2)cc1` [Molecule A14, (Z)-1-(3-(2,6-dimethylphenyl)-4-oxothiazolidin-2-ylidene)-3-(4-(1-(4-(trifluoromethoxy)phenyl)-1H-1,2,4-triazol-3-yl)phenyl)urea], the pest or weed control at 50 µg/cm2 in assay [1] (setting [5]) and in assay [2] (setting [5]) was 50 to 100% each time. In addition, the pest or weed control at 200 ppm in assay [3] (setting [6]) was 0 to 80%. Further, the “Rating YFM” value in assay [4] was “A (80-100)”.
`COc1ccc(N/C(O)=C/C(=O)Nc2ccc(-c3ncn(-c4ccc(OC(F)(F)F)cc4)n3)cc2)c(C)c1` [Molecule A33, (Z)-3-hydroxy-3-(4-methoxy-2-methylphenylamino)-N-(4-(1-(4-(trifluoromethoxy)phenyl)-1H-1,2,4-triazol-3-yl)phenyl)acrylamide]: the pest or weed control at 50 µg/cm2 in assay [1] (setting [5]) and in assay [2] (setting [5]) was 50 to 100% in each case. Moreover, the pest or weed control at 200 ppm in assay [3] (setting [6]) fell in the range of 0 to 80%.
As for `COc1cc(C)c(N2C(=O)CS/C2=N\C(=O)Nc2ccc(-c3ncn(-c4ccc(OC(F)(F)F)cc4)n3)cc2)c(C)c1` [Molecule A44], the pest or weed control at 50 µg/cm2 in assay [1] (setting [5]) and in assay [2] (setting [5]) was 50 to 100% each time. In assay [3] (setting [6]), the pest or weed control at 200 ppm was in the range of 0 to 80%. In assay [4], the “Rating YFM” value is listed as “A (80-100)”.
As to `CCc1ccccc1N/C(S)=N/C(=O)Nc1ccc(-c2ncn(-c3ccc(OC(F)(F)F)cc3)n2)cc1` [Molecule A46], the pest or weed control at 50 µg/cm2 in assay [1] (setting [5]) and in assay [2] (setting [5]) was 50 to 100% throughout. For the same compound, the pest or weed control at 200 ppm in assay [3] (setting [6]) was in the range of 0 to 80%. The “Rating YFM” value in assay [4] was “A (80-100)”.
